According to patent US9272056B2, “Method to produce hyperpolarised carboxylates” (GE Healthcare AS, priority 2005, dated 2016):

Assay: T1 relaxation in human full blood
Format: physicochemical
Details: human full blood at 37° C.
From the text: The amount of alanine, bicarbonate and lactate is dependent on the metabolic status of the tissue under investigation.

T1 relaxation: about 42 s
Structure (SMILES): CC(=O)[13C](=O)O [^13C-pyruvate]
